Experimental data: the NIST ThermoML archive (doi:10.1021/je500380x)
Numbers after ± are expanded uncertainties.

Experiment: mn = molality of the nth substance listed, in mol/kg
Conditions: 100 kPa, Liquid; for viscosity: Falling or rolling sphere viscometry; for mass density: Vibrating tube method; for electrical conductivity: Alternating current cell with electrodes

CCC(=O)OCCN1CCNCC1 [2-(piperazin-1-yl)ethyl propionate] + CCO
Conditions	electrical conductivity, 313.15 K [S/m]	electrical conductivity, 318.15 K [S/m]	mass density, 308.15 K [kg/m3]	mass density, 313.15 K [kg/m3]	viscosity, 308.15 K [mPa·s]	viscosity, 313.15 K [mPa·s]
m1 = 0.05	0.0197 ± 0.0002	0.0198 ± 0.0002	779.32 ± 0.16	774.92 ± 0.16	–	0.856 ± 0.011
m1 = 0.1	0.0323 ± 0.0003	0.0328 ± 0.0003	782.05 ± 0.15	777.65 ± 0.16	–	0.893 ± 0.011
m1 = 0.1985	0.0513 ± 0.0005	0.0525 ± 0.0005	787.4 ± 0.15	783 ± 0.15	–	0.939 ± 0.012
m1 = 0.3005	0.0674 ± 0.0007	0.0694 ± 0.0007	793.06 ± 0.15	788.67 ± 0.15	–	1.003 ± 0.012
m1 = 0.4001	0.0806 ± 0.0008	0.0833 ± 0.0008	798.51 ± 0.15	794.13 ± 0.15	–	1.066 ± 0.013
m1 = 0.5007	0.0937 ± 0.0009	0.0972 ± 0.001	804.18 ± 0.15	799.81 ± 0.15	–	1.145 ± 0.014
m1 = 0.5998	0.1048 ± 0.001	0.109 ± 0.0011	809.68 ± 0.15	805.32 ± 0.15	–	1.225 ± 0.015
m1 = 0.7002	0.1144 ± 0.0011	0.119 ± 0.0012	815.4 ± 0.15	811.06 ± 0.15	–	1.317 ± 0.016
m1 = 0.8	0.125 ± 0.0013	0.1309 ± 0.0013	821.15 ± 0.15	816.82 ± 0.15	–	1.435 ± 0.018
m1 = 0.8957	0.1335 ± 0.0013	0.14 ± 0.0014	826.9 ± 0.14	822.6 ± 0.14	–	1.529 ± 0.019
m1 = 1	0.1433 ± 0.0014	0.1514 ± 0.0015	832.84 ± 0.14	828.55 ± 0.14	1.841 ± 0.023	1.655 ± 0.02
m1 = 1.198	0.158 ± 0.0016	0.168 ± 0.0017	844.51 ± 0.14	840.27 ± 0.14	2.166 ± 0.027	1.94 ± 0.024
m1 = 1.401	0.1717 ± 0.0017	0.1837 ± 0.0018	857.11 ± 0.14	852.89 ± 0.14	2.605 ± 0.032	2.319 ± 0.029
m1 = 1.602	0.1817 ± 0.0018	0.195 ± 0.002	869.1 ± 0.13	864.93 ± 0.14	3.182 ± 0.039	2.817 ± 0.035
m1 = 1.8	0.189 ± 0.0019	0.204 ± 0.002	881.5 ± 0.13	877.36 ± 0.13	3.932 ± 0.049	3.459 ± 0.043
m1 = 2.001	0.1932 ± 0.0019	–	894.88 ± 0.13	890.78 ± 0.13	5.113 ± 0.063	4.464 ± 0.055
m1 = 2.198	0.1946 ± 0.0019	–	906.86 ± 0.13	902.73 ± 0.13	6.285 ± 0.078	5.328 ± 0.066
m1 = 2.397	0.193 ± 0.0019	–	920.09 ± 0.12	916.08 ± 0.12	7.874 ± 0.097	6.774 ± 0.084
m1 = 2.597	0.1842 ± 0.0018	–	933.36 ± 0.12	929.4 ± 0.12	11.18 ± 0.14	9.473 ± 0.12
m1 = 2.796	0.177 ± 0.0018	–	946.62 ± 0.12	942.71 ± 0.12	14.4 ± 0.18	12.12 ± 0.15
m1 = 3.006	0.166 ± 0.0017	–	960.85 ± 0.12	956.85 ± 0.12	20.29 ± 0.25	16.88 ± 0.21
